Measurements taken from paper PMC6757278, “Structural Basis for Inhibition of Human Primase by Arabinofuranosyl Nucleoside Analogues Fludarabine and Vidarabine” (ACS Chemical Biology, 2019).

Columns and labels:
[1] = target: T1, Pri1 (full-length, 1 to 420) (Homo sapiens, UniProt P49642); assay: fluorescence polarization competition against 6FAM-ATP; assay type: binding; conditions: read-out: K1/2
T1 construct: gene PRIM1; full-length catalytic subunit alone (1-420), His6 tag cleaved by TEV protease, E. coli Rosetta2 (DE3), pRSFDuet-1
T1 sequence (P49642 1-420): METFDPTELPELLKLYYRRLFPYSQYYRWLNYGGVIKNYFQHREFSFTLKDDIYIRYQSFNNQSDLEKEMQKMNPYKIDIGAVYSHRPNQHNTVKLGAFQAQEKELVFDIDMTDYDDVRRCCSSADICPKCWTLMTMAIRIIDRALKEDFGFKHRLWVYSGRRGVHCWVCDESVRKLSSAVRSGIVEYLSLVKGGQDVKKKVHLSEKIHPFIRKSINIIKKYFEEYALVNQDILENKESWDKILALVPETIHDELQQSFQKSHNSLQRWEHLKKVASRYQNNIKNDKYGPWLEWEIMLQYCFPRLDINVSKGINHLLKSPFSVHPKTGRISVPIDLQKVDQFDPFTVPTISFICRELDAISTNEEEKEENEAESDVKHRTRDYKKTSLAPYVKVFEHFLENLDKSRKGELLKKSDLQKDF

[2] = target: T1, Pri1 (full-length, 1 to 420); assay: fluorescence anisotropy direct titration; assay type: binding

Row | SMILES | IC50 [1] [µM] | Kd [2] [nM]
1 | Nc1nc(F)nc2c1ncn2[C@@H]1O[C@H](COP(=O)(O)OP(=O)(O)OP(=O)(O)O)[C@@H](O)[C@@H]1O [fludarabine-TP] | 1.1 | –
2 | O=C(NCCCCCCNc1ncnc2c1ncn2[C@@H]1O[C@H](COP(=O)(O)OP(=O)(O)OP(=O)(O)O)[C@@H](O)[C@H]1O)c1ccc2c(c1)C1(OC2=O)c2ccc(O)cc2Oc2cc(O)ccc21 [6FAM-ATP] | – | 410
3 | Nc1nc(F)nc2c1ncn2[C@@H]1O[C@H](COP(=O)(O)OP(=O)(O)OP(=O)(O)O)[C@@H](O)[C@H]1O [2F-ATP] | 7.2 | –

Results, then the molecule that gave them:

Row | IC50 [1] [µM] | Kd [2] [nM] | SMILES
4 | 3.3 | – | Nc1ncnc2c1ncn2[C@H]1C[C@H](O)[C@@H](COP(=O)(O)OP(=O)(O)OP(=O)(O)O)O1 [dATP]
5 | 1.5 | – | Nc1ncnc2c1ncn2[C@@H]1O[C@H](COP(=O)(O)OP(=O)(O)OP(=O)(O)O)[C@@H](O)[C@@H]1O [vidarabine-TP]
6 | 7.5 | – | Nc1ncnc2c1ncn2[C@@H]1O[C@H](COP(=O)(O)OP(=O)(O)OP(=O)(O)O)[C@@H](O)[C@H]1O [ATP]
